What was measured:
Assay in all cases: relative viability (nuclei count vs DMSO), 5 days (fraction); higher = more cells survive
KN-93 + Phenformin = compound: CN(C/C=C/C1=CC=C(C=C1)Cl)CC2=CC=CC=C2N(CCO)S(=O)(=O)C3=CC=C(C=C3)OC [KN-93] + N=C(N)NC(=N)NCCc1ccccc1 [Phenformin] (partner 250 µM)
Procedure, shortened: (§1)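 Lung cancer cell lines in 1536-well plates got either a single drug or a fixed anchor-drug dose together with five library-drug doses (not always all listed) in √10 steps, by pin tool, on the day after seeding. Nuclei were counted after 5 days, and relative viability is the treated-to-vehicle ratio of nuclei counts. Values are medians of duplicate plates.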

KN-93 + Vorinostat = compound: CN(C/C=C/C1=CC=C(C=C1)Cl)CC2=CC=CC=C2N(CCO)S(=O)(=O)C3=CC=C(C=C3)OC [KN-93] + O=C(CCCCCCC(=O)Nc1ccccc1)NO [Vorinostat] (partner 1 µM)
Procedure, shortened: as §1

KN-93 + Alpelisib = compound: CN(C/C=C/C1=CC=C(C=C1)Cl)CC2=CC=CC=C2N(CCO)S(=O)(=O)C3=CC=C(C=C3)OC [KN-93] + Cc1nc(NC(=O)N2CCC[C@H]2C(N)=O)sc1-c1ccnc(C(C)(C)C(F)(F)F)c1 [Alpelisib] (partner 2 µM)
Procedure, shortened: as §1

KN-93 + Tozasertib = compound: CN(C/C=C/C1=CC=C(C=C1)Cl)CC2=CC=CC=C2N(CCO)S(=O)(=O)C3=CC=C(C=C3)OC [KN-93] + Cc1cc(Nc2cc(N3CCN(C)CC3)nc(Sc3ccc(NC(=O)C4CC4)cc3)n2)n[nH]1 [Tozasertib] (partner 0.1 µM)
Procedure, shortened: as §1

KN-93 + Pictilisib = compound: CN(C/C=C/C1=CC=C(C=C1)Cl)CC2=CC=CC=C2N(CCO)S(=O)(=O)C3=CC=C(C=C3)OC [KN-93] + CS(=O)(=O)N1CCN(Cc2cc3nc(-c4cccc5[nH]ncc45)nc(N4CCOCC4)c3s2)CC1 [Pictilisib] (partner 1 µM)
Procedure, shortened: as §1

Row | Cell Line | relative viability (KN-93 + Phenformin; first compound 0.08 µM) | relative viability (KN-93 + Phenformin; first compound 0.253 µM) | relative viability (KN-93 + Phenformin; first compound 2.53 µM) | relative viability (KN-93 + Phenformin; first compound 8 µM) | relative viability (KN-93 + Vorinostat; first compound 0.08 µM) | relative viability (KN-93 + Vorinostat; first compound 0.253 µM) | relative viability (KN-93 + Vorinostat; first compound 2.53 µM) | relative viability (KN-93 + Vorinostat; first compound 8 µM) | relative viability (KN-93 + Alpelisib; first compound 0.08 µM) | relative viability (KN-93 + Alpelisib; first compound 0.253 µM) | relative viability (KN-93 + Alpelisib; first compound 2.53 µM) | relative viability (KN-93 + Alpelisib; first compound 8 µM) | relative viability (KN-93 + Tozasertib; first compound 0.08 µM) | relative viability (KN-93 + Tozasertib; first compound 0.253 µM) | relative viability (KN-93 + Tozasertib; first compound 2.53 µM) | relative viability (KN-93 + Tozasertib; first compound 8 µM) | relative viability (KN-93 + Pictilisib; first compound 0.08 µM) | relative viability (KN-93 + Pictilisib; first compound 0.253 µM) | relative viability (KN-93 + Pictilisib; first compound 2.53 µM) | relative viability (KN-93 + Pictilisib; first compound 8 µM)
1 | NCI-H1666 | 0.611 | 0.772 | 0.656 | 0.576 | 1.07 | 1.1 | 1.04 | 1.06 | 0.974 | 0.895 | 1.22 | 0.674 | 0.599 | 0.662 | 0.57 | 0.454 | 0.56 | 0.388 | 0.489 | 0.527
2 | NCI-H1734 | 0.363 | 0.446 | 0.381 | 0.411 | 0.808 | 0.837 | 0.944 | 0.576 | 0.718 | 0.712 | 0.746 | 0.533 | 0.254 | 0.27 | 0.264 | 0.215 | 0.534 | 0.548 | 0.492 | 0.29
3 | NCI-H1755 | 0.699 | 0.608 | 0.674 | 0.605 | 0.844 | 0.835 | 0.856 | 0.511 | 0.718 | 1.13 | 1.2 | 0.819 | 0.625 | 0.604 | 0.584 | 0.468 | 0.413 | 0.429 | 0.475 | 0.205
4 | NCI-H1793 | 0.372 | 0.36 | 0.367 | 0.2 | 0.882 | 0.565 | 0.89 | 0.249 |  | 0.851 | 0.624 | 0.542 | 0.305 | 0.23 | 0.315 | 0.258 |  | 0.334 | 0.382 | 0.267
5 | NCI-H1915 | 0.382 | 0.421 | 0.408 | 0.359 | 0.496 | 0.607 | 0.608 | 0.491 | 1.06 | 1.17 | 1.1 | 0.95 | 0.388 | 0.446 | 0.413 | 0.308 | 0.967 | 0.865 | 0.928 | 0.806
6 | NCI-H1944 | 0.172 | 0.216 | 0.218 | 0.195 | 0.502 | 0.627 | 0.522 | 0.249 | 0.832 | 0.761 | 0.931 | 0.754 | 0.269 | 0.221 | 0.257 | 0.218 | 0.372 | 0.292 | 0.332 | 0.34
7 | NCI-H1975 | 0.423 | 0.463 | 0.456 | 0.4 | 0.614 | 0.812 | 0.728 | 0.452 | 0.607 | 0.717 | 0.556 | 0.284 | 0.702 | 0.849 | 0.676 | 0.146 | 0.281 | 0.267 | 0.28 | 0.25
8 | NCI-H1993 | 0.619 | 0.519 | 0.512 | 0.574 | 0.659 | 0.711 | 0.742 | 0.702 | 0.648 | 0.574 | 0.71 | 0.59 | 0.563 | 0.552 | 0.593 | 0.519 | 0.689 | 1.07 | 0.761 | 0.754
9 | NCI-H2009 | 0.426 | 0.557 | 0.492 | 0.317 | 0.716 | 0.679 | 0.637 | 0.447 | 1.2 | 1.3 | 1.29 | 0.887 | 0.689 | 0.764 | 0.692 | 0.493 | 0.841 | 1.01 | 0.761 | 0.345
10 | NCI-H2023 | 0.365 | 0.466 | 0.496 | 0.247 | 0.636 | 0.67 | 0.763 | 0.551 | 0.562 | 0.46 | 0.689 | 0.517 | 0.363 | 0.337 | 0.483 | 0.178 | 0.3 | 0.212 | 0.22 | 0.167
11 | NCI-H2085 | 0.698 | 0.796 | 0.815 | 0.655 | 0.791 | 0.747 | 0.747 | 0.578 | 0.993 | 1.07 | 0.985 | 0.749 | 0.667 | 0.662 | 0.873 | 0.369 | 0.438 | 0.452 | 0.518 | 0.414
12 | NCI-H2087 | 0.427 | 0.648 | 0.57 | 0.442 | 0.707 | 0.963 | 0.861 | 0.54 | 0.879 | 1.21 | 0.933 | 0.532 | 0.248 | 0.238 | 0.267 | 0.152 | 0.839 | 0.967 | 0.898 | 0.466
13 | NCI-H2126 | 0.524 | 0.483 | 0.502 | 0.481 | 0.782 | 0.83 | 0.727 | 0.704 | 0.81 | 0.725 | 0.769 | 0.727 | 0.858 | 0.805 | 0.862 | 0.554 | 0.482 | 0.443 | 0.499 | 0.468
14 | NCI-H2170 | 0.434 | 0.419 | 0.392 | 0.402 | 0.717 | 0.907 | 0.932 | 0.522 | 0.782 | 0.876 | 0.928 | 0.65 | 0.755 | 0.845 | 0.729 | 0.454 | 0.303 | 0.266 | 0.319 | 0.255
15 | NCI-H2228 | 0.229 | 0.347 | 0.412 | 0.325 | 0.588 | 0.786 | 0.655 | 0.346 | 0.704 | 0.553 | 0.722 | 0.236 | 0.274 | 0.166 | 0.243 | 0.154 | 0.251 | 0.324 | 0.384 | 0.329
16 | NCI-H2347 | 0.517 | 0.376 | 0.55 | 0.362 | 0.513 | 0.623 | 0.674 | 0.458 | 1 | 1.09 | 1.07 | 0.764 | 0.587 | 0.55 | 0.618 | 0.505 | 0.572 | 0.616 | 0.696 | 0.543
17 | NCI-H2405 | 0.379 | 0.479 | 0.718 | 0.354 | 1.02 | 1.08 | 0.949 | 0.691 | 0.831 | 0.732 | 0.766 | 0.526 | 0.799 | 0.776 | 0.733 | 0.533 | 0.407 | 0.319 | 0.446 | 0.305
18 | NCI-H3122 | 0.384 | 0.381 | 0.901 | 0.326 | 0.595 | 1.12 | 1.08 | 0.66 | 0.829 | 0.659 | 0.766 | 0.585 | 0.385 | 0.39 | 0.469 | 0.389 | 0.622 | 0.708 | 0.639 | 0.627
19 | PC-3 [JPC-3] | 0.437 | 0.46 | 0.494 | 0.441 | 0.794 | 0.765 | 0.756 | 0.637 | 0.999 | 1.04 | 1.01 | 0.94 | 0.905 | 0.957 | 0.922 | 0.813 | 0.727 | 0.708 | 0.759 | 0.645
20 | PC-14 | 0.593 | 0.685 | 0.596 | 0.547 | 0.623 | 0.753 | 0.649 | 0.625 | 0.753 | 1.01 | 1.14 | 0.839 | 0.642 | 0.544 | 0.583 | 0.21 |  | 0.531 | 0.618 | 0.349
21 | RERF-LC-KJ | 0.365 | 0.409 | 0.462 | 0.307 | 0.785 | 0.643 | 0.696 | 0.577 | 0.682 | 0.754 | 0.766 | 0.634 | 0.448 | 0.477 | 0.405 | 0.271 | 0.582 | 0.486 | 0.598 | 0.332
22 | SK-LU-1 | 0.494 | 0.811 | 0.475 | 0.391 | 0.626 | 0.865 | 0.781 | 0.473 | 1.19 | 1.47 | 0.926 | 0.471 | 0.337 | 0.349 | 0.322 | 0.278 | 0.5 | 0.591 | 0.536 | 0.357
23 | SK-MES-1 | 0.554 | 0.751 | 0.699 | 0.571 | 1.11 | 1.12 | 1.14 | 0.924 | 0.737 | 0.977 | 0.864 | 0.862 | 0.919 | 0.98 | 1.04 | 0.4 | 0.332 | 0.327 | 0.419 | 0.253
24 | SW 1573 | 0.319 | 0.389 | 0.454 | 0.275 | 0.685 | 0.916 | 0.746 | 0.569 | 0.87 | 0.805 | 0.933 | 0.632 | 0.177 | 0.22 | 0.191 | 0.19 |  | 0.446 | 0.493 | 0.199
25 | UMC-11 | 0.381 | 0.365 | 0.355 | 0.277 | 0.364 | 0.35 | 0.359 | 0.267 |  | 1.24 | 1.27 | 0.613 | 0.178 | 0.199 | 0.188 | 0.203 |  | 0.976 | 0.962 | 0.278

— the supplement of paper PMC10307832
